Measured values published in patent US6831069B2, “Pyrrolo[2,3-d]pyrimidine nucleoside analogs” (priority 1999, dated 2004).
Several values for one entry are separate records, joined by “and”; a condition that tells them apart may be missing. Equal entries are not always repeated. Where two headings read alike, the source gives them in different places.

Legend:
[1] = tested on: BALB/c mice; conditions: mouse, in vivo
[2] = tested on: activated human T cells; experiment: MTT cell proliferation assay; format: cell-based; conditions: data not shown
[3] = tested on: activated human T cells; experiment: Analysis of cytokine mRNA (RT-PCR, Southern blot) in PMA-ION activated human T cells; format: cell-based
[4] = tested on: BALB/c and C57BL/6 lymph node CD4+ T cells; experiment: Generation of murine Th1 cells, IL-4 and IFNγ ELISA after restimulation; format: cell-based, mouse; set-up: murine IFNγ secretion upon restimulation: dose or concentration left out as unconfirmed; conditions: Th1 conditions (anti-CD3, IL-2, IFNγ, IL-12), both mouse strains
[5] = tested on: activated human T cells; experiment: T cell proliferation, [3H]-thymidine incorporation; format: cell-based; conditions: 48 h, read-out: peak inhibition of T cell proliferation
[6] = tested on: PMA/ionomycin stimulated T cell; experiment: Extracellular cytokine levels (ELISA) in PMA/ionomycin activated human T cells, 0 or 10 μM nucleoside; format: cell-based; conditions: 48 h, 5 human donors, of activated control level
[7] = tested on: activated peripheral human T cells; experiment: Extracellular cytokine analyses (ELISA) in PMA-ION activated peripheral human T cells; format: cell-based; set-up: secreted IL-4, increase over activated control / IFNγ, decrease over activated control: concentration or dose not given beside the values; conditions: for heightened IL-4 production / reduced levels of secreted IFNγ: PMA-ION; for IFNγ, decrease over activated control / secreted IL-4, increase over activated control: 48 h PMA-ION
[8] = tested on: BALB/c mice; experiment: Contact hypersensitivity (CHS) to DNFB; format: in vivo, mouse; conditions: for mean decrease in ear thickness (inhibition of CHS): 24 h post-challenge
Description: Reactivity to the contact allergen, DNFB, was determined, in BALB/c mice, as previously described (Ishii, N., K. Takahashi, H. Nakajima, S. Tanaka, P. W. Askenase. 1994. DNFB contact sensitivity (CS) in BALB/c and C3H/He mice. J. Invest. Dermatol. 102:321). Briefly, mice were sensitized by application of 20 μl of 0.3% DNFB in acetone: olive oil, 4:1 onto the shaved abdomens of naive mice. For optimal elicitation of CHS, the mice were challenged on both sides of each ear with 20 μl of 0.12% DNFB, five days after sensitization. Unsensitized mice were also challenged and used as controls in each experiment. After 24 h, ear thickness measurements were taken and response to DNFB was assessed by subtracting […]. Where indicated, 7-β-D-ribofuranosyl-4-oxopyrrolo-[2,3-d]pyrimidine-5-carboxamidine, at a dose of 6.2 μg in 50 μl PBS (0.3 mg/kg) or 12.4 μg in 100 μl PBS (0.6 mg/kg), was administered by i.p. injection at the time of challenge with DNFB. These doses of 7-β-D-ribofuranosyl-4-oxopyrrolo[2,3-d]pyrimidine-5-carboxamidine gave maximal effect in preliminary optimization studies. Following final ear thickness measurements, mice were sacrificed by cervical dislocation and axillary/lateral axillary lymph nodes were removed. Following isolation of total cellular RNA from isolated lymph node cells, RT-PCR and Southern Blot analyses were performed to monitor for mouse IFNg, IL-2, and IL-10 mRNA levels.
Total cellular RNA was extracted using Trizol reagent (Life Technologies, Gaithersburg, Md.). The cDNA synthesis reaction was performed using oligo (dT)12-18 primer and Superscript II (Life Technologies) reverse transcriptase. The PCR reaction (GeneAmp PCR kit, Perkin-Elmer, Foster City, Calif.) consisted of a 50 μl mixture containing cDNA, dNTPs (each at 200 μM), 0.5 μM of each primer pair and 1.25 unit of Taq polymerase. The primers for human IL-2, IL-10, IL-4, IL-6, IL-1b, IFNg, c-myc, IL-2R, CD40L (Stratagene, La Jolla, Calif.), iNOS (Clontech, Palo Alto, Calif.) and pHE7 ribosomal gene were used. Typical amplification conditions included a 5-minute denaturation at 94° C. and a 5 minute annealing at 60° C. followed by 35 cycles of 1.5 min at 72° C., 45 sec at 94° C. and 45 sec at 60° C., with a final extension time of 10 min at 72° C. The primers for mouse IL-2, IFNγ, and β-actin were obtained from Stratagene and mouse IL-10 from Clontech. Amplification conditions for the Stratagene mouse cytokine primers were a 5 min denaturation at 94° C. and a 5 min annealing at 60° C. followed by 35 cycles of 1.5 min at 72° C., 45 sec at 94° C. and 45 sec at 60° C., with a final extension time of 10 min at 72° C. For IL-10, the PCR conditions were a 5-minute denaturation at 94° C. followed by 35 cycles of 45 sec at 94° C., 45 sec at 60° C. and 2 min at 72° C., with a final extension time of 7 min at 72° C.
For each gene product, the optimum cDNA dilution was determined experimentally and was defined as the cDNA dilution that would achieve a detectable concentration that was well below saturating conditions. […] Equivalent loading was assessed following hybridization with a probe generated from pHE7 sense primer. Washed blots were then analyzed using a Phosphorimager (Biorad, Richmond, Calif.). Relative changes in cytokine or other test mRNA were presented as densitometric readings and normalized for any variations in input RNA by determining the densitometric ratio of mRNA of interest relative to mRNA of the housekeeping gene, pHE7.

[9] = 10 μM, T cells from normal donors and RA patients
[10] = 2, 5 or 10 μM, 6 h or 24 h, PMA-ION, representative of three donors
[11] = pro-/anti-inflammatory mediator study, FIG. 18
[12] = 10 μM, 48 h, representative of five donors
[13] = 10 μM, T cells of 16 RA patients
[14] = 10 μM, T cells of 16 normal donors
[15] = lymph node cells, DNFB-primed mice

In the case of `N=C(N)c1cn([C@@H]2O[C@H](CO)[C@@H](O)[C@H]2O)c2nc[nH]c(=O)c12` [ICN 10776, 7-β-D-ribofuranosyl-4-oxopyrrolo-[2,3-d]pyrimidine-5-carboxamidine], the “IFNγ mRNA levels” value [1] is reported as “substantially reduced”, the “mean decrease in serum nitrite levels” value [1] is reported as 54% and 78% and the “murine IL-10 mRNA expression” value [1] is reported as “greatly enhanced”. The “T cell proliferation (MTT)” value [2] was “dramatically inhibited T cell proliferation”, the “IFNγ mRNA levels” value [3, 9] was “suppressed” and the “IL-4 mRNA levels” value [3, 9] was “elevated”. For the same molecule, the “TNFα mRNA levels” value [3, 9] was “suppressed”, the “IFNγ mRNA” value [3, 10] was “concomitant decrease” and the “IL-4 mRNA” value [3, 10] was “increase in IL-4 mRNA”. For the same molecule, the “TNFα mRNA” value [3, 10] was “concomitant decrease”, the “IFNγ mRNA” value [3, 11] was “suppression” and the “IL-1β mRNA” value [3, 11] was “suppressed”. For the same molecule, the “IL-2 mRNA” value [3, 11] was “suppression”, the “IL-4 mRNA” value [3, 11] was “enhancement” and the “IL-6 mRNA” value [3, 11] was “suppressed”. The “IL-10 mRNA” value [3, 11] was “enhancement of IL-10”, the “TNFα mRNA” value [3, 11] was “suppression” and the c-myc expression [3, 11] was “suppression”. The “inducible nitric oxide synthase (iNOS) expression” value [3, 11] was “reduction”, the “murine IL-4 secretion upon restimulation” value ([4]; co-incubation with 10 mM ICN 10776) was “elevated levels of IL-4” and the “murine IFNγ secretion upon restimulation” value ([4]; co-incubation with ICN 10776) was “low levels of IFNγ”. The inhibition at 20 µM [5] was 99%, the “enhanced activated IL-4 production” value [6] was 498%±83 and the “suppressed IFNγ” value [6] was 43%±4. The “peak enhancement of PMA-ION-induced IL-4 level” value [7, 12] was 166%, the “peak enhancement of PMA-ION-induced IL-5 level” value [7, 12] was 77% and the “heightened IL-4 production” value [7, 13] was 192%. For the same molecule, the “reduced levels of secreted IFNγ” value [7, 13] was 63%, the “heightened IL-4 production” value [7, 14] was 266% and the “reduced levels of secreted IFNγ” value [7, 14] was 43%. The “peak suppression of PMA-ION-induced IFNγ level” value ([7]; 20 μM, 48 h) was 72%, the “peak suppression of PMA-ION-induced IL-2 level” value ([7]; 20 μM, 48 h) was 62% and the “peak suppression of PMA-ION-induced TNFα level” value ([7]; 20 μM, 48 h) was 78%. For the same molecule, the “IFNγ, decrease over activated control” value ([7]; CD4+ T cells) was 81%, the “secreted IL-4, increase over activated control” value (from here on “secreted IL-4, increase”) ([7]; CD4+ T cells) was 994% and the “IFNγ, decrease over activated control” value ([7]; CD8+ T cells) was 37%. For the same molecule, the “secreted IL-4, increase” value ([7]; CD8+ T cells) was 228%, the “IFNγ, decrease over activated control” value ([7]; total T cells) was 52% and the “secreted IL-4, increase” value ([7]; total T cells) was 320%. For the same molecule, the “mean decrease in ear thickness (inhibition of CHS)” value ([8]; 0.3 mg/kg i.p. at time of challenge) was 42%, the “mean decrease in ear thickness (inhibition of CHS)” value ([8]; 0.6 mg/kg i.p. at time of challenge) was 68% and the “IFNγ mRNA levels” value [8, 15] was “substantially reduced”. The “IL-2 mRNA levels” value [8, 15] was “substantially reduced” and the “murine IL-10 mRNA expression” value [8, 15] was “greatly enhanced”.
